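Grown in 96-well plates, cells were treated for 48 hours with each compound at five concentrations. Insufficient inhibition: endpoint recorded as highest concentration tested. At the TGI there is no net growth.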
Legend:
Assay in all cases: DTP human tumour cell line panel, 48 h
T-47D breast = tested on: T-47D breast
LOX IMVI melanoma = tested on: LOX IMVI melanoma
DU-145 prostate = tested on: DU-145 prostate
786-0 renal = tested on: 786-0 renal
K-562 leukemia = tested on: K-562 leukemia
SK-OV-3 ovarian = tested on: SK-OV-3 ovarian
RPMI-8226 leukemia = tested on: RPMI-8226 leukemia
A549 NSCLC = tested on: A549 NSCLC
MALME-3M melanoma = tested on: MALME-3M melanoma
SK-MEL-5 melanoma = tested on: SK-MEL-5 melanoma
NCI-H522 lung = tested on: NCI-H522 lung
SF-268 CNS = tested on: SF-268 CNS
UACC-257 melanoma = tested on: UACC-257 melanoma
CCRF-CEM leukemia = tested on: CCRF-CEM leukemia
MDA-MB-435 = tested on: MDA-MB-435
CAKI-1 renal = tested on: CAKI-1 renal
NCI-H226 lung = tested on: NCI-H226 lung
SF-539 CNS = tested on: SF-539 CNS
MDA-MB-231 breast = tested on: MDA-MB-231 breast
OVCAR-3 ovarian = tested on: OVCAR-3 ovarian
HOP-62 NSCLC = tested on: HOP-62 NSCLC
SNB-19 CNS = tested on: SNB-19 CNS
OVCAR-5 ovarian = tested on: OVCAR-5 ovarian
TK-10 renal = tested on: TK-10 renal
NCI-H23 lung = tested on: NCI-H23 lung
PC-3 prostate = tested on: PC-3 prostate
HOP-92 NSCLC = tested on: HOP-92 NSCLC
A498 renal = tested on: A498 renal
HS 578T breast = tested on: HS 578T breast
NCI-H460 lung = tested on: NCI-H460 lung
NCI/ADR-RES ovarian = tested on: NCI/ADR-RES ovarian
HCT-15 colon = tested on: HCT-15 colon
SF-295 CNS = tested on: SF-295 CNS
MCF7 breast = tested on: MCF7 breast
OVCAR-8 ovarian = tested on: OVCAR-8 ovarian
SK-MEL-28 melanoma = tested on: SK-MEL-28 melanoma
OVCAR-4 ovarian = tested on: OVCAR-4 ovarian
UACC-62 melanoma = tested on: UACC-62 melanoma
COLO 205 colon = tested on: COLO 205 colon
IGROV1 ovarian = tested on: IGROV1 ovarian
ACHN renal = tested on: ACHN renal
HCC-2998 colon = tested on: HCC-2998 colon
SR leukemia = tested on: SR leukemia
HL-60(TB) leukemia = tested on: HL-60(TB) leukemia
EKVX NSCLC = tested on: EKVX NSCLC
M14 melanoma = tested on: M14 melanoma
KM12 colon = tested on: KM12 colon
SK-MEL-2 melanoma = tested on: SK-MEL-2 melanoma
HT29 colon = tested on: HT29 colon
RXF 393 renal = tested on: RXF 393 renal
MDA-N = tested on: MDA-N
MOLT-4 leukemia = tested on: MOLT-4 leukemia
U251 CNS = tested on: U251 CNS
UO-31 renal = tested on: UO-31 renal
SNB-75 CNS = tested on: SNB-75 CNS
SW-620 colon = tested on: SW-620 colon
HCT-116 colon = tested on: HCT-116 colon
SN12C renal = tested on: SN12C renal

C[C@@H](c1ccccc1)C(CC#N)[C@H]1CCC[C@]1(O)C#Cc1ccc2c(c1)OCO2 (some centres undefined)
TGI (T-47D breast): 32 µM
TGI (LOX IMVI melanoma): 39.5 µM
TGI (DU-145 prostate): 31.6 µM
TGI (786-0 renal): 31.3 µM
TGI (K-562 leukemia): 47.8 µM
TGI (SK-OV-3 ovarian): 34.6 µM
TGI (RPMI-8226 leukemia): 62.5 µM
TGI (A549 NSCLC): 29.8 µM
TGI (MALME-3M melanoma): 33.8 µM
TGI (SK-MEL-5 melanoma): 32.8 µM
TGI (NCI-H522 lung): 32.4 µM
TGI (SF-268 CNS): 38.8 µM
TGI (UACC-257 melanoma): 34.6 µM
TGI (CCRF-CEM leukemia): 35.5 µM
TGI (MDA-MB-435): 31.3 µM
TGI (CAKI-1 renal): 30.8 µM
TGI (NCI-H226 lung): 33.1 µM
TGI (SF-539 CNS): 24.1 µM
TGI (MDA-MB-231 breast): 33.7 µM
TGI (OVCAR-3 ovarian): 29.2 µM
TGI (HOP-62 NSCLC): 31.3 µM
TGI (SNB-19 CNS): 29.8 µM
TGI (OVCAR-5 ovarian): 30.8 µM
TGI (TK-10 renal): 29.6 µM
TGI (NCI-H23 lung): 35.5 µM
TGI (PC-3 prostate): 31.1 µM
TGI (HOP-92 NSCLC): 28.4 µM
TGI (A498 renal): 34.9 µM
TGI (HS 578T breast): 43.7 µM
TGI (NCI-H460 lung): 31.3 µM
TGI (NCI/ADR-RES ovarian): 33.8 µM
TGI (HCT-15 colon): 32.3 µM
TGI (SF-295 CNS): 32.4 µM
TGI (MCF7 breast): 41.3 µM
TGI (OVCAR-8 ovarian): 32.7 µM
TGI (SK-MEL-28 melanoma): 30.1 µM
TGI (OVCAR-4 ovarian): 32.6 µM
TGI (UACC-62 melanoma): 32.7 µM
TGI (COLO 205 colon): 33.1 µM
TGI (IGROV1 ovarian): 33.9 µM
TGI (ACHN renal): 30.8 µM
TGI (HCC-2998 colon): 30.3 µM
TGI (SR leukemia): 46.6 µM
TGI (HL-60(TB) leukemia): 43.8 µM
TGI (EKVX NSCLC): 35.4 µM
TGI (M14 melanoma): 30.9 µM
TGI (KM12 colon): 31.6 µM
TGI (SK-MEL-2 melanoma): 32.7 µM
TGI (HT29 colon): 28.9 µM
TGI (RXF 393 renal): 28.6 µM
TGI (MDA-N): 30.4 µM
TGI (MOLT-4 leukemia): 25.2 µM
TGI (U251 CNS): 32.1 µM
TGI (UO-31 renal): 27.7 µM
TGI (SNB-75 CNS): 32 µM
TGI (SW-620 colon): 33.2 µM

Cc1ccc(C(=O)CC(O)(C(F)(F)F)C(F)(F)F)cc1[N+](=O)[O-]
TGI (T-47D breast): 38.9 µM
TGI (LOX IMVI melanoma): 5.22 µM
TGI (DU-145 prostate): 13.7 µM
TGI (786-0 renal): 25.9 µM
TGI (K-562 leukemia): > 28.2 µM
TGI (HCT-116 colon): 12.1 µM
TGI (SK-OV-3 ovarian): 32.2 µM
TGI (RPMI-8226 leukemia): 69.4 µM
TGI (A549 NSCLC): 33 µM
TGI (MALME-3M melanoma): 31.8 µM
TGI (SK-MEL-5 melanoma): 30.8 µM
TGI (NCI-H522 lung): 1.19 µM
TGI (SF-268 CNS): 31.4 µM
TGI (UACC-257 melanoma): 9.39 µM
TGI (MDA-MB-435): 22.5 µM
TGI (CAKI-1 renal): 4.58 µM
TGI (NCI-H226 lung): 38.7 µM
TGI (SF-539 CNS): 31.7 µM
TGI (MDA-MB-231 breast): 21.5 µM
TGI (OVCAR-3 ovarian): 6.44 µM
TGI (HOP-62 NSCLC): 29.2 µM
TGI (SNB-19 CNS): 22.6 µM
TGI (OVCAR-5 ovarian): 33.4 µM
TGI (TK-10 renal): 33.3 µM
TGI (SN12C renal): 25 µM
TGI (NCI-H23 lung): 23.7 µM
TGI (PC-3 prostate): 27.2 µM
TGI (HOP-92 NSCLC): 22.3 µM
TGI (A498 renal): 35.8 µM
TGI (HS 578T breast): 42.6 µM
TGI (NCI-H460 lung): 25.1 µM
TGI (NCI/ADR-RES ovarian): 44.2 µM
TGI (HCT-15 colon): 13.6 µM
TGI (SF-295 CNS): 19.7 µM
TGI (MCF7 breast): 11 µM
TGI (OVCAR-8 ovarian): 25.9 µM
TGI (SK-MEL-28 melanoma): 23.4 µM
TGI (OVCAR-4 ovarian): 30.7 µM
TGI (UACC-62 melanoma): 21.9 µM
TGI (COLO 205 colon): 36.5 µM
TGI (IGROV1 ovarian): 11.2 µM
TGI (ACHN renal): 28.9 µM
TGI (HCC-2998 colon): 12.9 µM
TGI (SR leukemia): 14.3 µM
TGI (HL-60(TB) leukemia): 4.41 µM
TGI (EKVX NSCLC): 31.7 µM
TGI (M14 melanoma): 17.9 µM
TGI (KM12 colon): 6.31 µM
TGI (SK-MEL-2 melanoma): 34 µM
TGI (HT29 colon): 4.12 µM
TGI (RXF 393 renal): 27.1 µM
TGI (MDA-N): 28.2 µM
TGI (MOLT-4 leukemia): 68.5 µM
TGI (U251 CNS): 31.2 µM
TGI (UO-31 renal): 10.6 µM
TGI (SNB-75 CNS): 33.2 µM
TGI (SW-620 colon): 42.8 µM

CC1=NN(c2cccc(Cl)c2)C2(C1=Cc1ccccc1)C(Cl)C(=O)N2c1nc2ccccc2s1 (centres undefined)
TGI (T-47D breast): 59.9 µM
TGI (LOX IMVI melanoma): 64 µM
TGI (DU-145 prostate): 33.2 µM
TGI (786-0 renal): 32.9 µM
TGI (K-562 leukemia): > 100 µM
TGI (HCT-116 colon): 30.3 µM
TGI (SK-OV-3 ovarian): 52.3 µM
TGI (RPMI-8226 leukemia): > 100 µM
TGI (SK-MEL-5 melanoma): 32.5 µM
TGI (NCI-H522 lung): 36 µM
TGI (SF-268 CNS): 97.6 µM
TGI (UACC-257 melanoma): 74.7 µM
TGI (CCRF-CEM leukemia): > 100 µM
TGI (MDA-MB-435): 41.1 µM
TGI (CAKI-1 renal): 41.9 µM
TGI (NCI-H226 lung): 67.8 µM
TGI (SF-539 CNS): > 100 µM
TGI (MDA-MB-231 breast): 51.3 µM
TGI (OVCAR-3 ovarian): 40.6 µM
TGI (HOP-62 NSCLC): 45.3 µM
TGI (OVCAR-5 ovarian): 55.8 µM
TGI (TK-10 renal): > 100 µM
TGI (NCI-H23 lung): 31.5 µM
TGI (PC-3 prostate): 37.6 µM
TGI (HOP-92 NSCLC): 31.6 µM
TGI (A498 renal): 42.8 µM
TGI (HS 578T breast): > 100 µM
TGI (NCI-H460 lung): 28.5 µM
TGI (NCI/ADR-RES ovarian): 48.7 µM
TGI (HCT-15 colon): 31.5 µM
TGI (SF-295 CNS): 52.3 µM
TGI (MCF7 breast): 70.6 µM
TGI (OVCAR-8 ovarian): > 100 µM
TGI (SK-MEL-28 melanoma): > 100 µM
TGI (OVCAR-4 ovarian): 64.7 µM
TGI (IGROV1 ovarian): 43.7 µM
TGI (ACHN renal): 42.4 µM
TGI (HCC-2998 colon): 31.1 µM
TGI (SR leukemia): 67.3 µM
TGI (HL-60(TB) leukemia): 66.4 µM
TGI (EKVX NSCLC): > 100 µM
TGI (M14 melanoma): 46.2 µM
TGI (KM12 colon): 33.7 µM
TGI (SK-MEL-2 melanoma): 38.5 µM
TGI (HT29 colon): 40.5 µM
TGI (RXF 393 renal): 28 µM
TGI (MDA-N): 41.3 µM
TGI (MOLT-4 leukemia): 85.9 µM
TGI (U251 CNS): 29.7 µM
TGI (UO-31 renal): 31.9 µM
TGI (SW-620 colon): 42.4 µM
